Patent US20070135438A1, “INHIBITORS OF HISTONE DEACETYLASE FOR THE TREATMENT OF DISEASE” (KALYPSYS, INC., priority 2005, published 2007)
pIC50: −log10 of the molar value.

What was measured:
HDAC = test: In vitro HDAC-inhibition assay (Fluor de Lys fluorescent substrate); assay type: biochemical; conditions: HDAC enzyme source
Protocol: 1) In Vitro HDAC-Inhibition Assay:
This assay measures a compound's ability to inhibit acetyl-lysine deacetylation in vitro and was used as both a primary screening method as well as for IC50 determinations of confirmed inhibitors. The assay is performed in vitro using an HDAC enzyme source (e.g. partially purified nuclear extract or immunopurified HDAC complexes) and a proprietary fluorescent substrate/developer system (HDAC Quantizyme Fluor de Lys Fluorescent Activity Assay, BIOMOL). The assay is run in 1,536-well Greiner white-bottom plates using the following volumes and order of addition:
Step 1: Enzyme (2.5 μL) source added to plate (from refrigerated container)
Step 2: Compounds (50 nL) added with pin transfer device
Step 3: Fluor de Lys (2.5 μL) substrate added, incubate at RT, 30 minutes
Step 4: Developer (5 μL) solution is added (containing TSA), to stop reaction
Step 5: Plate Reader—data collection
The deacetylated fluorophore is excited with 360 nm light and the emitted light (460 nm) is detected on an automated fluorometric plate reader (Aquest, Molecular Devices).

HDAC in cells = test: Cellular HDAC inhibition (cellular histone hyperacetylation assays); assay type: cell-based; conditions: cellular assay, cell line not stated
Protocol: 2) Cellular Histone Hyperacetylation Assays:
These two secondary assays evaluates a compound's ability to inhibit HDAC in cells by measuring cellular histone acetylation levels. The cytoblot facilitates quantitative EC50 information for cellular HDAC inhibition. Transformed cell lines (e.g. HeLa, A549, MCF-7) are cultured under standard media and culture conditions prior to plating.
Cells (approx. 2,500/well) are allowed to adhere 10-24 hours to wells of a 384-well Greiner PS assay plate in media containing 1-5% serum. Cells are treated with appropriate compound and specific concentrations for 0 to 24 hours. Cells are washed once with PBS (60 μL) and then fixed (95% ethanol, 5% acetic acid or 2% PFA) for 1 minute at RT (30 μL). Cells are blocked with 1% BSA for 1 hour and washed and stained with antibody (e.g. anti-Acetylated Histone H3, Upstate Biotechnology), followed by washing and incubation with an appropriate secondary antibody conjugated to HRP or fluorophore. For luminescence assays, signal is generated using Luminol substrate (Santa Cruz Biotechnology) and detected using an Aquest plate reader (Molecular Devices).
Cells (4×10^5/well) are plated into Corning 6-well dish and allowed to adhere overnight. Cells are treated with compound at appropriate concentration for 12-18 hours at 37° C. Cells are washed with PBS on ice. Cells are dislodged with rubber policeman and lysed in buffer containing 25 mM Tris, pH7.6; 150 mM NaCl, 25 mM MgCl2, 1% Tween-20, and nuclei collected by centrifugation (7500 g). Nuclei are washed once in 25 mM Tris, pH7.6; 10 mM EDTA, collected by centrifugation (7500 g). Supernatant is removed and histones are extracted using 0.4 M HCl. Samples are centrifuged at 14000 g and supernatants are precipitated in 1 ml cold acetone. The histone pellet is dissolved in water and histones are separated and analyzed by SDS-PAGE Coomassie and immunoblotting (anti-acetylated histone antibodies, Upstate Biotechnology) using standard techniques.

SMILES | pIC50 (HDAC) | pIC50 (HDAC in cells)
CC(=O)SCC(=O)c1ccc(NS(=O)(=O)c2ccc(OCCCCN(C)C)cc2)nc1 [Example 4, Thioacetic acid S-(2-{6-[4-(4-dimethylamino-butoxy)-benzenesulfonylamino]-pyridin-3-yl}-2-oxo-ethyl) ester] | > 6.00 | > 6.00
CC(=O)SCC(=O)c1ccc(NS(=O)(=O)c2ccc(OCCCN(C)C)cc2)nc1 [Example 1, Thioacetic acid S-(2-{6-[4-(3-dimethylamino-propoxy)-benzenesulfonylamino]-pyridin-3-yl}-2-oxo-ethyl)ester] | > 6.00 | > 6.00
CC(=O)SCC(=O)c1ccc(NS(=O)(=O)c2ccc(OCC(C)(C)CN(C)C)cc2)nc1 [Example 3, Thioacetic acid S-(2-{6-[4-(3-dimethylamino-2,2-dimethyl-propoxy)-benzenesulfonylamino]-pyridin-3-yl}-2-oxo-ethyl) ester] | – | > 6.00
CC(=O)SCC(=O)c1ccc(NS(=O)(=O)c2ccc(OCCN(C)C)cc2)nc1 [Example 2, Thioacetic acid S-(2-{6-[4-(2-dimethylamino-ethoxy)-benzenesulfonylamino]-pyridin-3-yl}-2-oxo-ethyl) ester] | > 6.00 | > 6.00
